Source: the supplement of paper PMC10627819

Experiments:
[1] = tested on: B. subtilis 168; experiment: fitness (endpoint OD595 vs no drug) (fraction); higher = more growth
Method in brief: (§1)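 Fitness expresses the optical density reached at the stationary-phase transition as a fraction of the robust mean of no-drug control wells. It is capped at 1. Measurements were OD595 every 30 min for 14 h at 37 °C after inoculation of 384-well plates at OD595 0.01 (30 µl, or 55 µl for S. pneumoniae), minus the first reading.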

[2] = tested on: S. aureus Newman; experiment: as above
Method in brief: as §1

[3] = tested on: B. subtilis 168; experiment: Bliss interaction score (quartile over a dose matrix) (fitness difference); higher = more antagonism (negative = synergy)
Method in brief: (§2)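 Growth was read as OD595 when cultures entered stationary phase, and each value was divided by the plate's robust no-drug mean and capped at 1. This normalised ratio is the fitness value, and fitness for each single drug came from the combination data. The Bliss score subtracts the expected fitness, taken as the product, from the observed fitness and is given as quartiles across technical, biological and donor/recipient replicates.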

[4] = tested on: S. aureus DSM 20231; experiment: as above
Method in brief: as §2

[5] = tested on: S. aureus Newman; experiment: as above
Method in brief: as §2

[6] = tested on: S. pneumoniae D39V; experiment: as above
Method in brief: as §2

[7] = tested on: S. pneumoniae D39V; experiment: fitness (endpoint OD595 vs no drug) (fraction); higher = more growth
Method in brief: as §1
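For Bliss interaction score (quartile over a dose matrix) in this document: first quartile when negative (synergy) and third quartile when positive (antagonism).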
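For fitness (endpoint OD595 vs no drug) in this document: OD595 on entry to stationary phase over no-drug wells; at most 1.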

CO/N=C(\C(=O)N[C@@H]1C(=O)N2C(C(=O)O)=C(COC(N)=O)CS[C@H]12)c1ccco1 [Cefuroxime] + CN1C2=CC=CC=C2N=C3C1=CC=CC3=O [Pyocyanin]
fitness, [1]
Conditions	first compound 0.04875 µg/mL	first compound 0.0975 µg/mL	first compound 0.195 µg/mL
partner 1.25 µg/mL	–	–	0.53
partner 2.5 µg/mL	0.719	–	0.513
partner 5 µg/mL	0.59	0.501	0.463

fitness, one replicate
Conditions	first compound 0.04875 µg/mL	first compound 0.0975 µg/mL	first compound 0.195 µg/mL	first compound 1.562 µg/mL	first compound 3.125 µg/mL	first compound 6.25 µg/mL
[1], partner 1.25 µg/mL	–	–	–	0.331	0.306	0.24
[1], partner 2.5 µg/mL	–	–	–	0.308	0.258	0.192
[1], partner 5 µg/mL	–	–	–	0.253	0.215	0.184
[2], partner 1.25 µg/mL	0.903	0.869	0.897	–	–	–
[2], partner 2.5 µg/mL	0.84	0.779	0.864	–	–	–
[2], partner 5 µg/mL	0.504	0.451	0.472	–	–	–

Conditions	Bliss interaction score
[3]	0.0646
[4]	-0.0629
[5]	-0.0853
[6]	-0.0309

CO/N=C(\C(=O)N[C@@H]1C(=O)N2C(C(=O)O)=C(COC(N)=O)CS[C@H]12)c1ccco1 [Cefuroxime] + CN[C@H](CC(C)C)C(=O)N[C@H]1C(=O)N[C@@H](CC(N)=O)C(=O)N[C@H]2C(=O)N[C@H]3C(=O)N[C@H](C(=O)N[C@H](C(=O)O)c4cc(O)cc(O)c4-c4cc3ccc4O)[C@H](O)c3ccc(c(Cl)c3)Oc3cc2cc(c3O[C@@H]2O[C@H](CO)[C@@H](O)[C@H](O)[C@H]2O[C@H]2C[C@](C)(N)[C@H](O)[C@H](C)O2)Oc2ccc(cc2Cl)[C@H]1O [Vancomycin]
fitness, [2], one replicate
Conditions	first compound 0.04875 µg/mL	first compound 0.0975 µg/mL	first compound 0.195 µg/mL
partner 0.1875 µg/mL	0.934	0.974	0.943
partner 0.375 µg/mL	0.93	0.995	0.925
partner 0.75 µg/mL	0.975	0.988	0.926

Conditions	Bliss interaction score
[3]	-0.0941
[4]	0.14
[5]	0.0418
[6]	-0.0597

O=C(O)c1cn(C2CC2)c2cc(N3CCNCC3)c(F)cc2c1=O [Ciprofloxacin] + CN[C@H](CC(C)C)C(=O)N[C@H]1C(=O)N[C@@H](CC(N)=O)C(=O)N[C@H]2C(=O)N[C@H]3C(=O)N[C@H](C(=O)N[C@H](C(=O)O)c4cc(O)cc(O)c4-c4cc3ccc4O)[C@H](O)c3ccc(c(Cl)c3)Oc3cc2cc(c3O[C@@H]2O[C@H](CO)[C@@H](O)[C@H](O)[C@H]2O[C@H]2C[C@](C)(N)[C@H](O)[C@H](C)O2)Oc2ccc(cc2Cl)[C@H]1O [Vancomycin]
Conditions	fitness
[2], first compound 0.0375 µg/mL, partner 0.1875 µg/mL	0.75
[2], first compound 0.0375 µg/mL, partner 0.375 µg/mL	0.77
[2], first compound 0.0375 µg/mL, partner 0.75 µg/mL	0.725
[2], first compound 0.075 µg/mL, partner 0.1875 µg/mL	0.718
[2], first compound 0.075 µg/mL, partner 0.375 µg/mL	0.682
[2], first compound 0.075 µg/mL, partner 0.75 µg/mL	0.663
[2], first compound 0.15 µg/mL, partner 0.1875 µg/mL	0.07
[2], first compound 0.15 µg/mL, partner 0.375 µg/mL	0.0567
[2], first compound 0.15 µg/mL, partner 0.75 µg/mL	0.0797
[7], first compound 0.125 µg/mL, partner 0.03125 µg/mL	0.943
[7], first compound 0.125 µg/mL, partner 0.0625 µg/mL	0.881
[7], first compound 0.125 µg/mL, partner 0.125 µg/mL	0.885
[7], first compound 0.125 µg/mL, partner 0.25 µg/mL	0.0814
[7], first compound 0.125 µg/mL, partner 0.5 µg/mL	0.034
[7], first compound 0.25 µg/mL, partner 0.03125 µg/mL	0.845
[7], first compound 0.25 µg/mL, partner 0.0625 µg/mL	0.826
[7], first compound 0.25 µg/mL, partner 0.125 µg/mL	0.82
[7], first compound 0.5 µg/mL, partner 0.03125 µg/mL	0.58
[7], first compound 0.5 µg/mL, partner 0.0625 µg/mL	0.585
[7], first compound 0.5 µg/mL, partner 0.25 µg/mL	0.158
[7], first compound 0.5 µg/mL, partner 0.5 µg/mL	0.0552

[7], first compound 0.25 µg/mL, one replicate
Conditions	fitness
partner 0.25 µg/mL	0.0819
partner 0.5 µg/mL	0.0016

Conditions	Bliss interaction score
[3]	-0.0465
[4]	0.0479
[5]	-0.0715
[6]	-0.106

CO/N=C(\C(=O)N[C@@H]1C(=O)N2C(C(=O)O)=C(COC(N)=O)CS[C@H]12)c1ccco1 [Cefuroxime] + CCCCCCCCCC(=O)N[C@@H]1[C@H]([C@@H]([C@H](O[C@H]1OC2=C3C=C4C=C2OC5=C(C=C(C=C5)[C@H]([C@H]6C(=O)N[C@@H](C7=C(C(=CC(=C7)O)OC8[C@H]([C@H]([C@@H]([C@H](O8)CO)O)O)O)C9=C(C=CC(=C9)[C@H](C(=O)N6)NC(=O)[C@@H]4NC(=O)[C@@H]1C2=CC(=CC(=C2)OC2=C(C=CC(=C2)[C@H](C(=O)N[C@H](CC2=CC(=C(O3)C=C2)Cl)C(=O)N1)N)O)O)O)C(=O)O)O[C@H]1[C@@H]([C@H]([C@@H]([C@H](O1)CO)O)O)NC(=O)C)Cl)CO)O)O [Teicoplanin]
fitness, [2], one replicate, main component drawn
Conditions	first compound 0.04875 µg/mL	first compound 0.0975 µg/mL	first compound 0.195 µg/mL
partner 0.1562 µg/mL	≥ 1	0.968	0.888
partner 0.3125 µg/mL	0.991	0.968	0.953
partner 0.625 µg/mL	≥ 1	0.977	0.973

main component drawn
Conditions	Bliss interaction score
[3]	-0.0964
[4]	0.15
[5]	0.0304
[6]	-0.0352

O=C(O)c1cn(C2CC2)c2cc(N3CCNCC3)c(F)cc2c1=O [Ciprofloxacin] + CCCCCCCCCC(=O)N[C@@H]1[C@H]([C@@H]([C@H](O[C@H]1OC2=C3C=C4C=C2OC5=C(C=C(C=C5)[C@H]([C@H]6C(=O)N[C@@H](C7=C(C(=CC(=C7)O)OC8[C@H]([C@H]([C@@H]([C@H](O8)CO)O)O)O)C9=C(C=CC(=C9)[C@H](C(=O)N6)NC(=O)[C@@H]4NC(=O)[C@@H]1C2=CC(=CC(=C2)OC2=C(C=CC(=C2)[C@H](C(=O)N[C@H](CC2=CC(=C(O3)C=C2)Cl)C(=O)N1)N)O)O)O)C(=O)O)O[C@H]1[C@@H]([C@H]([C@@H]([C@H](O1)CO)O)O)NC(=O)C)Cl)CO)O)O [Teicoplanin]
fitness, [2], main component drawn
Conditions	first compound 0.0375 µg/mL	first compound 0.075 µg/mL	first compound 0.15 µg/mL
partner 0.1562 µg/mL	0.681	0.629	0.0421
partner 0.3125 µg/mL	0.713	0.626	0.0116
partner 0.625 µg/mL	0.608	0.534	0.0117

fitness, [2], one replicate, main component drawn
Conditions	first compound 0.078 µg/mL	first compound 0.156 µg/mL	first compound 0.312 µg/mL
partner 0.62 µg/mL	0.535	0.0341	0.036
partner 1.24 µg/mL	0.372	0.0368	0.0337
partner 2.48 µg/mL	0.0816	0.0702	0.0565

main component drawn
Conditions	Bliss interaction score
[3]	-0.1
[4]	0.0835
[5]	-0.0935
[6]	-0.063
